The test system of series [1] is Burkholderia thailandensis (E 264). In words: microbe, parasite or virus in culture. It counts as cell-based. Particulars: for zone of inhibition at 100 µM / zone of inhibition at 500 µM / zone of inhibition at 1000 µM: Burkholderia thailandensis, read-out: Zone of inhibition (diameter, in millimeter) B. thailandensis; for zone of inhibition at 100 µM: Conc. 0.1 mM; for zone of inhibition at 500 µM: Conc. 0.5 mM; for zone of inhibition at 1000 µM: Conc. 1.0 mM.

The subject of series [2] is Pseudomonas aeruginosa (ATCC 27853). Description: microbe, parasite or virus in culture. The series is classed as cell-based. Conditions: Pseudomonas aeruginosa, ATCC27853, read-out: Zone of inhibition (diameter, in millimeter) P. aeruginosa; for zone of inhibition at 100 µM: Conc. 0.1 mM; for zone of inhibition at 500 µM: Conc. 0.5 mM; for zone of inhibition at 1000 µM: Conc. 1.0 mM.

For series [3], the target named is T1, BtIspD (Burkholderia thailandensis, UniProt Q2SWT6).
T1 construct: 6xHis (AVA0421 vector, 3C-cleavable) (N, cleaved yes); made in house; host or cells: E. coli BL21(DE3)R3 Rosetta Oxford
T1 sequence (Q2SWT6 1-236): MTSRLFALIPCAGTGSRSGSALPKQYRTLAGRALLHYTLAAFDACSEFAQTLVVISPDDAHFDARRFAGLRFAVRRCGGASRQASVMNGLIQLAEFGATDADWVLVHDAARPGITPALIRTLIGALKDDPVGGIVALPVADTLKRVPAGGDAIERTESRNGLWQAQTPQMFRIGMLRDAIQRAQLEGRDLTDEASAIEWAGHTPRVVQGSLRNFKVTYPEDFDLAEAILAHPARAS
It counts as binding.

What is called melting point is the temperature, or range, at which the solid turns liquid. `Cn1ncc2c(NCCc3c[nH]c4ccccc34)ncnc21`: the melting point lay within 183 to 185 °C.
What is called zone of inhibition is the extent of the growth-free halo in a diffusion test. For the compound `CC(C)(C)n1ncc2c(NCCO)ncnc21` [Compound 4], the melting point was 75 to 77 °C. Further, in series [1], the zone of inhibition at 100 µM is 0 mm, the zone of inhibition at 500 µM came to 8 mm and the zone of inhibition at 1000 µM came out at 12 mm. Besides, in series [2], the zone of inhibition at 100 µM is 0 mm, the zone of inhibition at 500 µM amounted to 12 mm and the zone of inhibition at 1000 µM amounted to 20 mm.
The compound `CCOC(=O)CNc1ncnc2c1cnn2C` [Compound 5] displayed a melting point of 141 to 142 °C. In addition, in series [1], the zone of inhibition at 100 µM was 0 mm, the zone of inhibition at 500 µM amounted to 8 mm and the zone of inhibition at 1000 µM came out at 12 mm. For the same compound, in series [2], the zone of inhibition at 100 µM came to 0 mm, the zone of inhibition at 500 µM was 0 mm and the zone of inhibition at 1000 µM turned out to be 13 mm.
As to `CC(C)Nc1ncnc2c1cnn2C` [Compound 6], the melting point is 101 to 103 °C. In series [1], the zone of inhibition at 100 µM amounted to 0 mm, the zone of inhibition at 500 µM came out at 13 mm and the zone of inhibition at 1000 µM is 21 mm. Moreover, in series [2], the zone of inhibition at 100 µM amounted to 0 mm, the zone of inhibition at 500 µM was found to be 0 mm and the zone of inhibition at 1000 µM stood at 10 mm.
`Cn1ncc2c(NCc3ccco3)ncnc21` [Compound 7] gave a melting point of 141 to 143 °C. In addition, in series [1], the zone of inhibition at 100 µM is 0 mm, the zone of inhibition at 500 µM worked out at 0 mm and the zone of inhibition at 1000 µM came to 20 mm. Besides, in series [2], the zone of inhibition at 100 µM came out at 0 mm, the zone of inhibition at 500 µM amounted to 0 mm and the zone of inhibition at 1000 µM came to 0 mm.
`CC(C)(C)n1ncc2c(NCc3ccco3)ncnc21` [Compound 8] gave a melting point of 101 to 103 °C. For the same compound, in series [1], the zone of inhibition at 100 µM was found to be 0 mm, the zone of inhibition at 500 µM stood at 12 mm and the zone of inhibition at 1000 µM turned out to be 14 mm. In series [2], the zone of inhibition at 100 µM stood at 0 mm, the zone of inhibition at 500 µM turned out to be 6 mm and the zone of inhibition at 1000 µM turned out to be 12 mm.
For `Cn1ncc2c(NCc3ccccc3)ncnc21` [Compound 9], in series [1], the zone of inhibition at 100 µM is 0 mm, the zone of inhibition at 500 µM stood at 0 mm and the zone of inhibition at 1000 µM is 12 mm. In addition, in series [2], the zone of inhibition at 100 µM came out at 0 mm, the zone of inhibition at 500 µM was found to be 0 mm and the zone of inhibition at 1000 µM turned out to be 0 mm.
`C[C@H](Nc1ncnc2c1cnn2C)c1ccccc1` [Compound 10] returned a melting point of 201 to 203 °C. Further, in series [1], the zone of inhibition at 100 µM worked out at 0 mm, the zone of inhibition at 500 µM came out at 11 mm and the zone of inhibition at 1000 µM is 19 mm. In series [2], the zone of inhibition at 100 µM stood at 0 mm, the zone of inhibition at 500 µM came to 8 mm and the zone of inhibition at 1000 µM amounted to 14 mm.
`CC(C)(C)n1ncc2c(NCc3ccccc3)ncnc21` [Compound 11] gave a melting point of 158 to 160 °C. Further, in series [1], the zone of inhibition at 100 µM is 0 mm, the zone of inhibition at 500 µM came to 12 mm and the zone of inhibition at 1000 µM turned out to be 18 mm. Besides, in series [2], the zone of inhibition at 100 µM was found to be 0 mm, the zone of inhibition at 500 µM was 0 mm and the zone of inhibition at 1000 µM stood at 0 mm.
With `Cn1ncc2c(NCc3ccccc3F)ncnc21` [Compound 13], the melting point lay within 184 to 185 °C. Also, in series [1], the zone of inhibition at 100 µM was 0 mm, the zone of inhibition at 500 µM was found to be 8 mm and the zone of inhibition at 1000 µM was 13 mm. In addition, in series [2], the zone of inhibition at 100 µM is 0 mm, the zone of inhibition at 500 µM is 12 mm and the zone of inhibition at 1000 µM stood at 18 mm.
As to `CC(C)(C)n1ncc2c(NCc3cccc([N+](=O)[O-])c3)ncnc21` [Compound 15], the melting point fell in the range of 135 to 137 °C. For the same compound, in series [1], the zone of inhibition at 100 µM came out at 0 mm, the zone of inhibition at 500 µM was 12 mm and the zone of inhibition at 1000 µM was found to be 16 mm. For the same compound, in series [2], the zone of inhibition at 100 µM amounted to 0 mm, the zone of inhibition at 500 µM was 13 mm and the zone of inhibition at 1000 µM was 17 mm.
Regarding `Cn1ncc2c(NCc3ccc(F)cc3)ncnc21` [Compound 16], in series [1], the zone of inhibition at 100 µM was determined as 0 mm, the zone of inhibition at 500 µM was found to be 9 mm and the zone of inhibition at 1000 µM is 18 mm. In series [2], the zone of inhibition at 100 µM was found to be 0 mm, the zone of inhibition at 500 µM worked out at 12 mm and the zone of inhibition at 1000 µM amounted to 18 mm.
The compound `CC(C)(C)n1ncc2c(NCc3ccc(Cl)c(Cl)c3)ncnc21` [Compound 19] gave a melting point of 120 to 123 °C. In addition, in series [1], the zone of inhibition at 100 µM worked out at 0 mm, the zone of inhibition at 500 µM is 16 mm and the zone of inhibition at 1000 µM was 20 mm. In addition, in series [2], the zone of inhibition at 100 µM stood at 0 mm, the zone of inhibition at 500 µM stood at 12 mm and the zone of inhibition at 1000 µM was found to be 16 mm.
`Cn1ncc2c(NCCc3ccccc3)ncnc21` [Compound 20] showed a melting point of 101 to 103 °C. Also, in series [1], the zone of inhibition at 100 µM amounted to 0 mm, the zone of inhibition at 500 µM was found to be 9 mm and the zone of inhibition at 1000 µM was 20 mm. Moreover, in series [2], the zone of inhibition at 100 µM stood at 0 mm, the zone of inhibition at 500 µM was found to be 0 mm and the zone of inhibition at 1000 µM stood at 0 mm.
`Cn1ncc2c(NCCc3ccccc3F)ncnc21` [Compound 21] displayed a melting point of 139 to 140 °C. In addition, in series [1], the zone of inhibition at 100 µM turned out to be 0 mm, the zone of inhibition at 500 µM was found to be 12 mm and the zone of inhibition at 1000 µM was determined as 16 mm. For the same compound, in series [2], the zone of inhibition at 100 µM came to 0 mm, the zone of inhibition at 500 µM worked out at 8 mm and the zone of inhibition at 1000 µM was 16 mm.
Consider `Cn1ncc2c(NCCc3cccc(F)c3)ncnc21` [Compound 22], for which the melting point lay within 109 to 110 °C. In series [1], the zone of inhibition at 100 µM worked out at 0 mm, the zone of inhibition at 500 µM was determined as 11 mm and the zone of inhibition at 1000 µM was found to be 14 mm. Also, in series [2], the zone of inhibition at 100 µM stood at 0 mm, the zone of inhibition at 500 µM was determined as 0 mm and the zone of inhibition at 1000 µM came out at 8 mm.
Regarding `Cn1ncc2c(NCCc3ccc(F)cc3)ncnc21` [Compound 23], the melting point was in the range of 106 to 107 °C. In addition, in series [1], the zone of inhibition at 100 µM amounted to 0 mm, the zone of inhibition at 500 µM is 12 mm and the zone of inhibition at 1000 µM was found to be 22 mm. Further, in series [2], the zone of inhibition at 100 µM was determined as 0 mm, the zone of inhibition at 500 µM was 9 mm and the zone of inhibition at 1000 µM was found to be 17 mm.
Take `Cn1ncc2c(NCCc3ccc(Cl)cc3)ncnc21` [Compound 24]: in series [1], the zone of inhibition at 100 µM was determined as 0 mm, the zone of inhibition at 500 µM is 10 mm and the zone of inhibition at 1000 µM was found to be 13 mm. Moreover, in series [2], the zone of inhibition at 100 µM is 0 mm, the zone of inhibition at 500 µM turned out to be 0 mm and the zone of inhibition at 1000 µM was 10 mm.
`Cn1ncc2c(NCCc3c(F)cccc3Cl)ncnc21` [Compound 26]: the melting point lay in the range of 195 to 196 °C. In series [1], the zone of inhibition at 100 µM is 0 mm, the zone of inhibition at 500 µM worked out at 13 mm and the zone of inhibition at 1000 µM amounted to 21 mm. Also, in series [2], the zone of inhibition at 100 µM was 0 mm, the zone of inhibition at 500 µM is 11 mm and the zone of inhibition at 1000 µM stood at 19 mm. In series [3], the “STD-NMR binding to BtIspD (in words)” value is “strongest binders” and the “change of STD binding to BtIspD upon addition of CDP” value was “large decrease”.
In turn, `CC(C)(C)n1ncc2c(NCCc3c(F)cccc3Cl)ncnc21` [Compound 27] came in with a melting point of 140 to 142 °C. Moreover, in series [1], the zone of inhibition at 100 µM was 0 mm, the zone of inhibition at 500 µM is 12 mm and the zone of inhibition at 1000 µM amounted to 16 mm. In series [2], the zone of inhibition at 100 µM worked out at 0 mm, the zone of inhibition at 500 µM was 0 mm and the zone of inhibition at 1000 µM turned out to be 0 mm. Also, in series [3], the “STD-NMR binding to BtIspD (in words)” value was “strongest binders” and the “change of STD binding to BtIspD upon addition of CDP” value is reported as “large decrease”.
Consider `CC(C)(C)n1ncc2c(NCCc3c(Cl)cccc3Cl)ncnc21` [Compound 28], for which the melting point lay within 154 to 156 °C. Besides, in series [1], the zone of inhibition at 100 µM was 0 mm, the zone of inhibition at 500 µM came out at 11 mm and the zone of inhibition at 1000 µM stood at 18 mm. Further, in series [2], the zone of inhibition at 100 µM was 0 mm, the zone of inhibition at 500 µM worked out at 0 mm and the zone of inhibition at 1000 µM came to 0 mm.
In the case of `NC[C@H]1O[C@H](O[C@H]2[C@H](O)[C@@H](O[C@H]3O[C@H](CO)[C@@H](O)[C@H](N)[C@H]3O)[C@H](N)C[C@@H]2N)[C@H](O)[C@@H](O)[C@@H]1O` [Kanamycin, reference compound], in series [1], the “concentration at which inhibitory activity against B. thailandensis is shown” value was found to be 48.5 µg/mL, the zone of inhibition at 100 µM was 6 mm, the zone of inhibition at 500 µM came to 22 mm and the zone of inhibition at 1000 µM is 30 mm. Also, in series [2], the zone of inhibition at 100 µM amounted to 0 mm, the zone of inhibition at 500 µM stood at 0 mm and the zone of inhibition at 1000 µM was determined as 0 mm.
